Data as given in a flash point compilation (Sun et al. 2020).

| SMILES | flash point |
| --- | --- |
| CCC[O-].CCC[O-].CCC[O-].CCC[O-].[Ti+4] [TITANIUM n-PROPOXIDE] | 45.00 °C |
| CCCC[O-].CCCC[O-].CCCC[O-].CCCC[O-].CCCC[O-].[Ta+5] [TANTALUM(V) n-BUTOXIDE] | 66.00 °C |
| CC[N-]C.CC[N-]C.CC[N-]C.CC[N-]C.[Ti+4] [TITANIUM TETRAKIS(ETHYLMETHYLAMIDE)] | 10.00 °C |
| CC(C)[O-].CC(C)[O-].CC(C)[O-].CC(C)[O-].[Ti+4] [TITANIUM ISOPROPOXIDE] | 25.00 °C |
| CC(C)[O][Al]([CH3])[CH3] [DIMETHYLISOPROPOXYALUMINUM] | 5.00 °C |
| c1ccc(P(c2ccccc2)c2ccccc2)cc1 [TRIPHENYLPHOSPHINE] | 182.00 °C |
| CC(C)[O-].CC(C)[O-].CC(C)[O-].[Cl-].[Ti+4] [TITANIUM CHLORIDE TRIISOPROPOXIDE] | 22.00 °C |
| C[N](C)[Ga]([N](C)C)[N](C)C [TRIS(DIMETHYLAMINO)GALLIUM] | 56.00 °C |
| C1CCC(PC2CCCCC2)CC1 [DICYCLOHEXYLPHOSPHINE] | 110.00 °C |
| CCCCN(CCCC)C(=S)[S-].CCCCN(CCCC)C(=S)[S-].[Ni+2] [NICKEL DI-n-BUTYLDITHIOCARBAMATE] | 260.00 °C |
| [CH3][Ga]([CH3])[CH3] [TRIMETHYLGALLIUM] | -1.00 °C |
| CC(C)(C)CCCCCC(=O)[O-].[Ag+] [SILVER NEODECANOATE] | 102.00 °C |
| CCCC[O-].CCCC[O-].CCCC[O-].CCCC[O-].CCCC[O-].[Nb+5] [NIOBIUM(V) n-BUTOXIDE] | 90.00 °C |
| CCCC[O-].CCCC[O-].CCCC[O-].[Sb+3] [ANTIMONY(III) n-BUTOXIDE] | 68.00 °C |
| [CH3][Al]([CH3])[Cl] [DIMETHYLALUMINUM CHLORIDE] | -18.00 °C |
| CC[N-]CC.CC[N-]CC.CC[N-]CC.CC[N-]CC.[Ti+4] [TITANIUM TETRAKIS(DIETHYLAMIDE)] | 37.00 °C |
| CCCCCCCCCCCCCC[P+](CCCCCC)(CCCCCC)CCCCCC.[Cl-] [TETRADECYL(TRIHEXYL)PHOSPHONIUM CHLORIDE] | 118.00 °C |
| CC(C)[O-].CC(C)[O-].CCOC(=O)CC(C)=O.[Al+2] [ALUMINUM DIISOPROPOXIDE ETHYLACETOACETATE] | 50.00 °C |

remark: another data set of the same source

| SMILES | flash point |
| --- | --- |
| CCC(C)C(C)C (stereo not drawn) [2,3-Dimethylpentane] | -15 °C |
| CCC(C)C(C)(C)CC (stereo not drawn) [3,3,4-Trimethylhexane] | 15 °C |
| CC(C)(C)CCC(C)(C)C [2,2,5,5-Tetramethylhexane] | 31 °C |
| CCC(C)C(C)CC(C)C (stereo not drawn) [2,4,5-Trimethylheptane] | 31 °C |
| CCCC(CC)C(C)CC (stereo not drawn) [4-Ethyl-3-methylheptane] | 41 °C |
| CCC(C)(C)CC [3,3-Dimethylpentane] | -19 °C |
| CC(C)C [2-Methylpropane] | -87 °C |
| CC(C)CCC(C)(C)C [2,2,5-Trimethylhexane] | 13 °C |
| CCCCC(CC)CCC (stereo not drawn) [4-Ethyloctane] | 41 °C |
| CC(C)C(C)(C)C [2,2,3-Trimethylbutane] | -26 °C |
| CC(C)(C)CC(C)(C)C [2,2,4,4-Tetramethylpentane] | 3 °C |
| CCCC(CC)C(C)(C)C (stereo not drawn) [3-Ethyl-2,2-dimethylhexane] | 38 °C |
| CCCCCCCCCCCCCC [Tetradecane] | 99 °C |
| CCC(C)C(C)C(C)C (stereo not drawn) [2,3,4-Trimethylhexane] | 15 °C |
| CCC(C)CCCC(C)C (stereo not drawn) [2,6-Dimethyloctane] | 41 °C |
| CCC(C)CC(C)C(C)C (stereo not drawn) [2,3,5-Trimethylheptane] | 31 °C |
| CC(C)(C)C(C)(C)C [2,2,3,3-Tetramethylbutane] | -0 °C |
| CCC(C)C(C)C(C)CC (stereo not drawn) [3,4,5-Trimethylheptane] | 31 °C |
| CCC(CC)CC [3-Ethylpentane] | -18 °C |
| CCCC(C)C(C)C (stereo not drawn) [2,3-Dimethylhexane] | 10 °C |
| CCC(C)(CC)C(C)C [2,3-Dimethyl-3-ethylpentane] | 15 °C |
| CCC(C)(C(C)C)C(C)C [3-Ethyl-2,3,4-trimethylpentane] | 31 °C |
| CCC(C)C(C)(C)C(C)C (stereo not drawn) [2,3,3,4-Tetramethylhexane] | 31 °C |
| CC(C)CC(C)C(C)C (stereo not drawn) [2,3,5-Trimethylhexane] | 15 °C |
| CCCC(C)C(C)CC (stereo not drawn) [3,4-Dimethylheptane] | 15 °C |
| CCC(C)(C)C(C)C [2,3,3-Trimethylpentane] | -0 °C |
| CC(C)C(C)C(C)(C)C (stereo not drawn) [2,2,3,4-Tetramethylpentane] | 11 °C |
| CCCC(C)C(C)(C)C (stereo not drawn) [2,2,3-Trimethylhexane] | 15 °C |

remark: another data set of the same source

| SMILES | flash point |
| --- | --- |
| CC(C)(C)CCCl [1-Chloro-3,3-dimethylbutane] | 19.1 °C |
| CC(C)CC(C)(C)Cl [2-Chloro-2,4-dimethylpentane] | 29.8 °C |
| CCC(C)CCCCCl (stereo not drawn) [1-Chloro-5-methylheptane] | 52.6 °C |
| CCCCCCCC(Cl)CCCC (stereo not drawn) [5-Chlorododecane] | 99.5 °C |
| CCCCCC(Cl)CC (stereo not drawn) [3-Chlorooctane] | 52.6 °C |
| CCCC(Cl)CCC [4-Chloroheptane] | 39.2 °C |
| CC(C)C(C)(C)Cl [2-Chloro-2,3-dimethylbutane] | 15.0 °C |
| CCC(C)(Cl)CCCC(C)C (stereo not drawn) [6-Chloro-2,6-dimethyloctane] | 69 °C |
| CCCC(C)(Cl)CC (stereo not drawn) [3-Chloro-3-methylhexane] | 33.6 °C |
| CC(C)CCC(C)Cl (stereo not drawn) [2-Chloro-5-methylhexane] | 35.2 °C |
| CC(C)CCCl [1-Chloro-3-methylbutane] | 16.1 °C |
| CCCCCCCCCCCCCCCCCCCl [1-Chlorooctadecane] | 184.1 °C |
| CCCCCCCCCCCCCl [1-Chlorododecane] | 104.6 °C |
| CC(C)(C)C(C)(C)Cl [2-Chloro-2,3,3-trimethylbutane] | 24.4 °C |
| CCCCCC(C)Cl (stereo not drawn) [2-Chloroheptane] | 39.2 °C |
| CC(C)CC(C)Cl (stereo not drawn) [2-Chloro-4-methylpentane] | 21 °C |
| CCCCCCCCCCCCCCCl [1-Chlorotetradecane] | 130.1 °C |
| CCCCC(Cl)(CC)CC [3-Chloro-3-ethylheptane] | 60.0 °C |
| CCCCCC(C)(Cl)CC (stereo not drawn) [3-Chloro-3-methyloctane] | 60.0 °C |
| CCC(Cl)CC [3-Chloropentane] | 10 °C |
| CCCCCCCCCCC(C)Cl (stereo not drawn) [2-Chlorododecane] | 99.6 °C |
| CCCCCCCCCCCl [1-Chlorodecane] | 83.1 °C |
| CCCCCCCCCCCCCCCCCCl [1-Chloroheptadecane] | 145.2 °C |
| CCC(Cl)C(C)C (stereo not drawn) [3-Chloro-2-methylpentane] | 21 °C |

remark: another data set of the same source

| SMILES | flash point |
| --- | --- |
| C[Si](C)(Cl)Cc1ccccc1 [BENZYLDIMETHYLCHLOROSILANE] | 73.00 °C |
| C=CC(=O)OC[Si](OC)(OC)OC [ACRYLOXYMETHYLTRIMETHOXYSILANE] | 62.00 °C |
| CCO[Si](CCCN)(OCC)OCC [3-AMINOPROPYLTRIETHOXYSILANE] | 104.00 °C |
| CO[Si](OC)(OC)c1cccc(N)c1 [m-AMINOPHENYLTRIMETHOXYSILANE] | 180.00 °C |
| C=CC(=O)OCCC[Si](C)(C)OC [(3-ACRYLOXYPROPYL)DIMETHYLMETHOXYSILANE] | 85.00 °C |
| CCO[Si](CCOC(C)=O)(OCC)OCC [ACETOXYETHYLTRIETHOXYSILANE] | 99.00 °C |
| C=CC[Si](Cl)(Cl)CCCCl [ALLYL(3-CHLOROPROPYL)DICHLOROSILANE] | 76.00 °C |
| C=CC[Si](OCC)(OCC)OCC [ALLYLTRIETHOXYSILANE] | 47.00 °C |
| C=CC[Si](C(C)C)(C(C)C)C(C)C [ALLYLTRIISOPROPYLSILANE] | 76.00 °C |
| CO[Si](CCCNCCN)(OC)OC [N-(2-AMINOETHYL)-3-AMINOPROPYLTRIMETHOXYSILANE] | 150.00 °C |
| CCO[Si](CCCNCCN)(OCC)OCC [N-(2-AMINOETHYL)-3-AMINOPROPYLTRIETHOXYSILANE] | 148.00 °C |
| C=CC[Si](Cl)(Cl)c1ccccc1 [ALLYLPHENYLDICHLOROSILANE] | 76.00 °C |
| COCN(Cc1ccccc1)C[Si](C)(C)C [N-BENZYL-N-METHOXYMETHYL-N-(TRIMETHYLSILYLMETHYL)AMINE] | 66.00 °C |
| CC(=O)OCC[Si](C)(Cl)Cl [ACETOXYETHYLMETHYLDICHLOROSILANE] | 65.00 °C |
| C=CC[Si](C)(C)CCl [ALLYL(CHLOROMETHYL)DIMETHYLSILANE] | 27.00 °C |
| C[Si](C)(C)CN=[N+]=[N-] [(AZIDOMETHYL)TRIMETHYLSILANE] | 6.00 °C |
| C=CC[Si](C)(C)C [ALLYLTRIMETHYLSILANE] | 7.00 °C |
| C=CCN[Si](C)(C)C [ALLYLAMINOTRIMETHYLSILANE] | 10.00 °C |
| C=CCNCCC[Si](OC)(OC)OC [3-(N-ALLYLAMINO)PROPYLTRIMETHOXYSILANE] | 88.00 °C |
| CO[Si](CCCN)(OC)OC [3-AMINOPROPYLTRIMETHOXYSILANE] | 83.00 °C |
| C[Si](C)(C)CCCN [3-AMINOPROPYLTRIMETHYLSILANE] | 59.00 °C |
| COCCOCCO[Si](CCCN)(OCCOCCOC)OCCOCCOC [3-AMINOPROPYLTRIS(METHOXYETHOXYETHOXY)SILANE] | 68.00 °C |
| C=CCO[Si](C)(C)C(C)(C)C [ALLYLOXY-t-BUTYLDIMETHYLSILANE] | 32.00 °C |
| CC(=O)O[Si](C)(C)C [ACETOXYTRIMETHYLSILANE] | 4.00 °C |
| C=CC[Si](C)(C)c1ccc(OC)cc1 [ALLYL(4-METHOXYPHENYL)DIMETHYLSILANE] | 102.00 °C |
| C=CC[SiH](Cl)Cl [ALLYLDICHLOROSILANE] | -4.00 °C |
| CC(=O)[Si](C)(C)C [ACETYLTRIMETHYLSILANE] | 8.00 °C |

remark: another data set of the same source

| SMILES | flash point |
| --- | --- |
| CCCCCCCCCCCCCC [Tetradecane] | 109.2 °C |
